The record followed here is patent US20230150986A1, “ANTAGONISTS OF THE MUSCARINIC ACETYLCHOLINE RECEPTOR M4” (Vanderbilt University, priority 2019, published 2023).

The experiment deals with T1, Human M4 (Homo sapiens, UniProt P08173).
T1 construct: Human or rat M4 cDNA, along with the chimeric G protein Gq,5, were transfected into Chinese hamster ovary (CHO-K1) cells; expressed in transfected cells; host or cells: CHO-K1 (M4/Gqi5/CHO)
T1 sequence (P08173 1-479): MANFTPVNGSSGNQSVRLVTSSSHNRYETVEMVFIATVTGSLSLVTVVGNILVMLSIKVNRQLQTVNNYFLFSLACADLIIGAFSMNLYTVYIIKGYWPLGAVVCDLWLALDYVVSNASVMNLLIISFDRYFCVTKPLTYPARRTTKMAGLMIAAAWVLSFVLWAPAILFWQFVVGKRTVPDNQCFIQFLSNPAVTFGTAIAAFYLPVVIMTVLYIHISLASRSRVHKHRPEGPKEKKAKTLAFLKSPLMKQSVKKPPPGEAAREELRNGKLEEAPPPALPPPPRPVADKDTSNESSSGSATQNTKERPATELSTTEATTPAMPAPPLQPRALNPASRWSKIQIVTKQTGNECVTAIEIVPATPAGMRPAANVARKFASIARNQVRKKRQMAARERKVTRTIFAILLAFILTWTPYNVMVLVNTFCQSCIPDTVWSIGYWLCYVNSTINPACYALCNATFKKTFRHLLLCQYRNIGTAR
Kind of experiment: mAChR M4 cell-based functional assay (calcium flux, decrease of EC80 acetylcholine response). The settings on record: for Human M4 Emin: % ACh maximum at 30 μM; for IC50: CHO-K1 cells with human M4 and Gqi5, EC80 acetylcholine. As for the experimental part:
Human or rat M4 cDNA, along with the chimeric G protein Gq,5, were transfected into Chinese hamster ovary (CHO-K1) cells purchased from the American Type Culture Collection using Lipofectamine2000. M4/Gqi5/CHO cells were grown in Ham's F-12 medium containing 10% heat-inactivated fetal bovine serum (FBS), 20 mM HEPES, 500 μg/mL G^418 sulfate, and 200 μg/mL Hygromycin B.
For high throughput measurement of agonist-evoked increases in intracellular calcium, CHO-K1 cells stably expressing muscarinic receptors were plated in growth medium lacking G418 and hygromycin at 15,000 cells/20 μL/well in Greiner 384-well black-walled, tissue culture (TC)-treated, clear-bottom plates (VWR). Cells were incubated overnight at 37° C. and 5% CO2. The next day, cells were washed using an ELX 405 (BioTek) with assay buffer; the final volume was then aspirated to 20 μL. Next, 20 μL of a 2.3 μM stock of Fluo-4/acetoxymethyl ester (Invitrogen, Carlsbad, Calif.), prepared as a 2.3 mM stock in DMSO and mixed in a 1:1 ratio with 10% (w/v) Pluronic F-127 and diluted in assay buffer, was added to the wells and the cell plates were incubated for 50 min at 37° C. and 5% CO2. Dye was removed by washing with the ELX 405 and the final volume was aspirated to 20 μL. Compound master plates were formatted in a 10 point concentration-response curve (CRC) format (1:3 dilutions) in 100% DMSO with a starting concentration of 10 or 1 mM using a BRAVO liquid handler (Agilent). Test compound CRCs were then transferred to daughter plates (240 nL) using the Echo acoustic plate reformatter (Labcyte, Sunnyvale, Calif.) and then diluted into assay buffer (40 μL) to a 2× stock using a Thermo Fisher Combi (Thermo Fisher Scientific, Waltham, Mass.).
Calcium flux was measured using the Functional Drug Screening System (FDSS) 6000 or 7000 (Hamamatsu Corporation, Tokyo, Japan) as an increase in the fluorescent static ratio. Compounds were applied to cells (20 μL, 2×) using the automated system of the FDSS at 2 seconds into the protocol and the data were collected at 1 Hz. At 143 s, 10 μL of an EC20 concentration of the muscarinic receptor agonist acetylcholine was added (5×), followed by the addition of […] of an EC80 concentration of acetylcholine at the 268 s time point (5×). Agonist activity was analyzed as a concentration-dependent increase in calcium mobilization upon compound addition. Positive allosteric modulator activity was analyzed as a concentration-dependent increase in the EC2o acetylcholine response. Antagonist activity was analyzed as a concentration-dependent decrease in the EC80 acetylcholine response; for the purposes of the tables herein, an IC50 (inhibitory concentration 50) was calculated as a concentration-dependent decrease of the response elicited by an EC80 concentration of acetylcholine. Concentration-response curves were generated using a four-parameter logistical equation in XLFit curve fitting software (IDBS, Bridgewater, N.J.) for Excel (Microsoft, Redmond, Wash.) or Prism (GraphPad Software, Inc., San Diego, Calif.) or the Dotmatics software platform (Dotmatics, Bishop's Stortford, UK).
Compounds were synthesized as described above. Activity (IC50 and Emin) was determined in the mAChR M4 cell-based functional assay as described above and the data are shown in Table 2.

As a reminder, the IC50 is the point on the concentration scale where inhibition reaches its midpoint. On to `[2H]C(C)(c1ccccn1)N1C[C@H]2C[C@H](Nc3ccc(-c4cc(F)cc(F)c4F)nn3)C[C@H]2C1` (stereo partly drawn) [Compound 15, (3aR,5s,6aS)-2-(1-(pyridin-2-yl)ethyl-1-d)-N-(6-(2,3,5-trifluorophenyl)pyridazin-3-yl)octahydrocyclopenta[c]pyrrol-5-amine], for which the “Human M4 Emin” value is 2% and the IC50 is 0.0952 µM.

As to `Cc1cccc(CN2C[C@H]3C[C@H](Nc4ccc(-c5cc(F)cc(F)c5F)nn4)C[C@H]3C2)n1` [Compound 16, (3aR,5s,6aS)-2-((6-methylpyridin-2-yl)methyl)-N-(6-(2,3,5-trifluorophenyl)pyridazin-3-yl)octahydrocyclopenta[c]pyrrol-5-amine], the “Human M4 Emin” value is 3% and the IC50 is 0.038 µM.

On to `COc1cccc(CN2C[C@H]3C[C@H](Nc4ccc(-c5cc(F)cc(F)c5F)nn4)C[C@H]3C2)n1` [Compound 17, (3aR,5s,6aS)-2-((6-methoxypyridin-2-yl)methyl)-N-(6-(2,3,5-trifluorophenyl)pyridazin-3-yl)octahydrocyclopenta[c]pyrrol-5-amine], for which the “Human M4 Emin” value turned out to be 2% and the IC50 came out at 0.0571 µM.

For the compound `Cc1ccc(CN2C[C@H]3C[C@H](Nc4ccc(-c5cc(F)cc(F)c5F)nn4)C[C@H]3C2)nc1` [Compound 18, (3aR,5s,6aS)-2-((5-methylpyridin-2-yl)methyl)-N-(6-(2,3,5-trifluorophenyl)pyridazin-3-yl)octahydrocyclopenta[c]pyrrol-5-amine], the “Human M4 Emin” value amounted to 4% and the IC50 was found to be 0.0243 µM.

Turning to `Fc1cc(F)c(F)c(-c2ccc(N[C@H]3C[C@@H]4CN(Cc5cc(Cl)ccn5)C[C@@H]4C3)nn2)c1` [Compound 19, (3aR,5s,6aS)-2-((4-chloropyridin-2-yl)methyl)-N-(6-(2,3,5-trifluorophenyl)pyridazin-3-yl)octahydrocyclopenta[c]pyrrol-5-amine], the “Human M4 Emin” value turned out to be 3% and the IC50 came to 0.133 µM.

With `Fc1cc(F)c(F)c(-c2ccc(N[C@H]3C[C@@H]4CN(Cc5cccc(Cl)n5)C[C@@H]4C3)nn2)c1` [Compound 20, (3aR,5s,6aS)-2-((6-chloropyridin-2-yl)methyl)-N-(6-(2,3,5-trifluorophenyl)pyridazin-3-yl)octahydrocyclopenta[c]pyrrol-5-amine], the “Human M4 Emin” value is 5% and the IC50 was found to be 0.111 µM.

For `Fc1ccc(CN2C[C@H]3C[C@H](Nc4ccc(-c5cc(F)cc(F)c5F)nn4)C[C@H]3C2)nc1` [Compound 21, (3aR,5s,6aS)-2-((5-fluoropyridin-2-yl)methyl)-N-(6-(2,3,5-trifluorophenyl)pyridazin-3-yl)octahydrocyclopenta[c]pyrrol-5-amine], the “Human M4 Emin” value was found to be 4% and the IC50 stood at 0.0361 µM.

With `Fc1cc(F)c(F)c(-c2ccc(N[C@H]3C[C@@H]4CN(Cc5cccc(F)n5)C[C@@H]4C3)nn2)c1` [Compound 22, (3aR,5s,6aS)-2-((6-fluoropyridin-2-yl)methyl)-N-(6-(2,3,5-trifluorophenyl)pyridazin-3-yl)octahydrocyclopenta[c]pyrrol-5-amine], the “Human M4 Emin” value is reported as 4% and the IC50 is 0.0792 µM.

Turning to `Cc1cccnc1CN1C[C@H]2C[C@H](Nc3ccc(-c4cc(F)cc(F)c4F)nn3)C[C@H]2C1` [Compound 23, (3aR,5s,6aS)-2-((3-methylpyridin-2-yl)methyl)-N-(6-(2,3,5-trifluorophenyl)pyridazin-3-yl)octahydrocyclopenta[c]pyrrol-5-amine], the “Human M4 Emin” value was 5% and the IC50 is 0.0424 µM.

For the compound `Fc1cc(F)c(F)c(-c2ccc(N[C@H]3C[C@@H]4CN(C[C@@H]5COCCO5)C[C@@H]4C3)nn2)c1` [Compound 28, (3aR,5s,6aS)-2-(((R)-1,4-dioxan-2-yl)methyl)-N-(6-(2,3,5-trifluorophenyl)pyridazin-3-yl)octahydrocyclopenta[c]pyrrol-5-amine], the “Human M4 Emin” value is recorded as 4% and the IC50 is 0.00069 µM.

Regarding `Fc1cc(F)c(F)c(-c2ccc(N[C@H]3C[C@@H]4CN(C[C@H]5COCCO5)C[C@@H]4C3)nn2)c1` [Compound 29, (3aR,5s,6aS)-2-(((S)-1,4-dioxan-2-yl)methyl)-N-(6-(2,3,5-trifluorophenyl)pyridazin-3-yl)octahydrocyclopenta[c]pyrrol-5-amine], the “Human M4 Emin” value is recorded as 3% and the IC50 came out at 0.0483 µM.

As to `Fc1cc(F)c(F)c(-c2ccc(N[C@H]3C[C@@H]4CN(C[C@H]5CCOC5)C[C@@H]4C3)nn2)c1` [Compound 30, (3aR,5s,6aS)-2-(((R)-tetrahydrofuran-3-yl)methyl)-N-(6-(2,3,5-trifluorophenyl)pyridazin-3-yl)octahydrocyclopenta[c]pyrrol-5-amine], the “Human M4 Emin” value stood at 2% and the IC50 worked out at 0.0632 µM.

Take `Fc1cc(F)c(F)c(-c2ccc(N[C@H]3C[C@@H]4CN(C[C@H]5CC6CCC5O6)C[C@@H]4C3)nn2)c1` (stereo partly drawn) [Compound 31, (3aR,5s,6aS)-2-(((2R)-7-oxabicyclo[2.2.1]heptan-2-yl)methyl)-N-(6-(2,3,5-trifluorophenyl)pyridazin-3-yl)octahydrocyclopenta[c]pyrrol-5-amine]: the “Human M4 Emin” value stood at 3% and the IC50 was found to be 0.00147 µM.

On to `Fc1cc(F)c(F)c(-c2ccc(N[C@H]3C[C@@H]4CN(C[C@@H]5CC6CCC5O6)C[C@@H]4C3)nn2)c1` (stereo partly drawn) [Compound 32, (3aR,5s,6aS)-2-(((2S)-7-oxabicyclo[2.2.1]heptan-2-yl)methyl)-N-(6-(2,3,5-trifluorophenyl)pyridazin-3-yl)octahydrocyclopenta[c]pyrrol-5-amine], for which the “Human M4 Emin” value was determined as 3% and the IC50 came to 0.00048 µM.

For the compound `[2H]C([2H])(N1C[C@H]2C[C@H](Nc3ccc(-c4cc(F)cc(F)c4F)nn3)C[C@H]2C1)C1(CC)CCOCC1` [Compound 33, (3aR,5s,6aS)-2-((4-ethyltetrahydro-2H-pyran-4-yl)methyl-d2)-N-(6-(2,3,5-trifluorophenyl)pyridazin-3-yl)octahydrocyclopenta[c]pyrrol-5-amine], the “Human M4 Emin” value came out at 3% and the IC50 was 0.0396 µM.

For the compound `Fc1cc(F)c(F)c(-c2ccc(N[C@H]3C[C@@H]4CN(C5CCCCC5)C[C@@H]4C3)nn2)c1` [Compound 34, (3aR,5s,6aS)-2-cyclohexyl-N-(6-(2,3,5-trifluorophenyl)pyridazin-3-yl)octahydrocyclopenta[c]pyrrol-5-amine], the “Human M4 Emin” value is on record as 2% and the 50% inhibitory concentration (IC50) was 0.0387 µM.

As for `Fc1cc(F)c(F)c(-c2ccc(N[C@H]3C[C@@H]4CN(C5CC6(COC6)C5)C[C@@H]4C3)nn2)c1` [Compound 35, (3aR,5s,6aS)-2-(2-oxaspiro[3.3]heptan-6-yl)-N-(6-(2,3,5-trifluorophenyl)pyridazin-3-yl)octahydrocyclopenta[c]pyrrol-5-amine], the “Human M4 Emin” value came to 3% and the IC50 was determined as 0.798 µM.
